Assay results from US20050244829A1, “Method of screening insulin resistance inproving drug” (priority 2002, published 2005).

Key:
p68 RNA helicase = experiment: Expression level of mRNA of p68 RNA helicase during differentiation of 3T3L1 cell into fat cell (real-time PCR); type: cell-based; settings: 3T3L1 cell in differentiation culture medium; pioglitazone final concentration 1 μM; 24 hours after addition; corrected on G3PDH expression
Protocol: To a culture plate (60-mm diameter; Asahi Technoglass), 2 ml of the minimum essential culture medium of DMEM (Gibco) supplemented with 10% fetal bovine serum (Sigma) was added and a culture cell 3T3L1 cell was cultured therein to become confluence. Subsequently, the culture medium was replaced with a differentiation culture medium [the minimum essential culture medium DMEM (Gibco) supplemented with insulin (at a final concentration of 10 μg/ml; Sigma), dexamethazone (at a final concentration of […]; Sigma) and 3-isobutyl-1-[…] (at a final concentration of […]; Sigma)], to which pioglitazone (at a final concentration of 1 μM) as an agent for improving insulin resistance was added or was not added. Then, it was examined as to whether or not the expression level of p68 RNA helicase changed between the culture medium with or without adding pioglitazone. 24 hours after pioglitazone addition, the cell was harvested, to extract RNA using an RNA extraction reagent (ISOGEN; Wako Pure Chemical Co., Ltd.) for reverse transcription with a reverse transcription reaction kit (Thermoscript RT-PCR System; Invitrogen). […]

[1] = tested on: promoter region of p68 RNA helicase gene; experiment: Promoter activity of p68 RNA helicase gene, luciferase reporter assay in COS-1 cells; type: cell-based, monkey; settings: COS-1 cells co-transfected with pGL3-p68-899 bp or pGL3-p68-1184 bp; pioglitazone final concentration 10 μM; 24 hours; corrected by β-galactosidase activity; FIG. 2
Protocol: The culture medium was discarded and the cell was washed with phosphate buffered saline(PBS). Per each well, 80 μl each of lysis solution (100 mM potassium phosphate, pH 7.8, 0.2% Triton X-100) was added, for cell lysis. To 20 μl of the cytolytic solution, 100 μl of a luciferase substrate solution (Wako Pure Chemical Co., Ltd.) was added to assay the luminescence with a chemiluminescence meter (Type ML3000; Dynatech Laboratories). Separately, the β-galactosidase activity of the cytolytic solution was assayed with a kit for detecting the β-galactosidase activity (Galacto-Light Plus™ system; TROPIX), and the resulting value was digitized. This was used as the transfection efficiency of introduced gene, to correct the said luciferase activity per each well. Using primers represented by SEQ ID NOS:14 and 15 designed on the basis of the nucleotide sequence of the promoter of p68 RNA helicase gene as previously reported (Rossler, et al., Nucleic Acids Res., Vol. 28, pp. 932-939, 2000) and the human genome DNA sequence (GenBank accession No. AC009994) and additionally using the human genome DNA (Clontech) as template for PCR [using DNA polymerase (LA Taq DNA polymerase; Takara Shuzo Co., Ltd.), and at 98° C. (5 minutes) and subsequently 35 times of a cycle of 96° C. […] After culturing for 48 hours, the luminescence of luciferase was assayed in the same manner as in Example 2. […]

## CCc1ccc(CCOc2ccc(CC3SC(=O)NC3=O)cc2)nc1 (single isomer, unassigned; (+)) [pioglitazone, (+)-5-[4-[2-(5-ethyl-2-pyridinyl)ethoxy]benzyl]-2,4-thiazolidinedione]
p68 RNA helicase
  expression level of p68 RNA helicase compared with the culture medium without pioglitazone addition: about 1.7 fold
[1]
  promoter activity of p68 RNA helicase gene (luciferase activity): activated
